≈ marks a conversion by molar mass, not a printed value.
Key:
[1] = tested on: L1210; assay: In vitro inhibitory activity against FCE 24517 resistant L1210 leukemia cell lines ( ratio between IC50 values on resistant cells and sensitive cells); type: functional, Mus musculus
[2] = tested on: L1210; assay: The activity in vitro on L1210 murine leukemia cells, activity expressed as IC50; type: functional, cell-based, Mus musculus
[3] = tested on: L1210; assay: In vitro inhibitory activity against Doxorubicin resistant L1210 leukemia cell lines ( ratio between IC50 values on resistant cells and sensitive cells); type: functional, Mus musculus
[4] = tested on: Mus musculus; assay: Median survival time of treated mice / Median survival time of controls x100 was measured in vivo on L1210 murine leukemia cells; type: functional
[5] = tested on: L1210; assay: Optimal dose was measured in vivo on L1210 murine leukemia cells in CD2F1 mice(ip); type: functional, Mus musculus
[6] = Mus musculus, L1210, read-out: IC50

Compound	R.I [1]	IC50 [2, 6] [µg/mL]	R.I [3]	IC50 ([2]; l1210) [µg/mL]	T/C [4] [%]	OD [5] [mg/kg]
C=C(Br)C(=O)O	0.5	18.8 (≈ 125 µM)	1.1	–	–	–
O=C(O)C1CO1 (stereo not drawn)	0.5	–	1	131.397 (≈ 1490 µM)	–	–
Cl.Cn1cc(NC(=O)c2cc(NC(=O)c3cc(NC(=O)c4cc(NC=O)cn4C)cn3C)cn2C)cc1C(=O)NCCC(=N)N	169.9	0.285	175.4	–	–	–
Cl.Cn1cc(NC(=O)c2cc(NC(=O)c3cc(NC(=O)c4cc(NC(=O)C5CO5)cn4C)cn3C)cn2C)cc1C(=O)NCCC(=N)N (stereo not drawn)	24.1	0.0389	1.7	–	188	3.125
C=C(Cl)C(=O)Nc1cc(C(=O)Nc2cc(C(=O)Nc3cc(C(=O)NCCC(=N)N)n(C)c3)n(C)c2)n(C)c1.Cl	24.8	0.056	40.3	–	184	10
C=C(Br)C(=O)Nc1cc(C(=O)Nc2cc(C(=O)Nc3cc(C(=O)NCCC(=N)N)n(C)c3)n(C)c2)n(C)c1.Cl	11.4	0.0496	8.8	–	175	12.5
Cl.Cn1cc(NC(=O)c2cc(NC(=O)c3cc(NC(=O)C4CO4)cn3C)cn2C)cc1C(=O)NCCC(=N)N (stereo not drawn)	44.4	0.229	7.1	–	188	50
Cl.Cn1cc(NC(=O)c2cc(NC(=O)c3cc(NC(=O)c4cc(NC(=O)c5ccc(N(CCCl)CCCl)cc5)cn4C)cn3C)cn2C)cc1C(=O)NCCC(=N)N	65.4	0.0163	–	–	138	0.39
C=C(Br)C(=O)Nc1cc(C(=O)Nc2cc(C(=O)Nc3cc(C(=O)Nc4cc(C(=O)NCCC(=N)N)n(C)c4)n(C)c3)n(C)c2)n(C)c1.Cl	27	0.0047	3.8	–	206	3.125
C=C(Cl)C(=O)Nc1cc(C(=O)Nc2cc(C(=O)Nc3cc(C(=O)Nc4cc(C(=O)NCCC(=N)N)n(C)c4)n(C)c3)n(C)c2)n(C)c1.Cl	69.6	0.0027	59.9	–	171	3.125
Cn1cc(NC(=O)c2cc(NC(=O)c3cc(NC=O)cn3C)cn2C)cc1C(=O)NCCC(=N)N [STALLIMYCIN]	14.1	5.22 (≈ 10.8 µM)	45.6	–	113	200
Cl.Cn1cc(NC(=O)c2cc(NC(=O)c3cc(NC(=O)c4ccc(N(CCCl)CCCl)cc4)cn3C)cn2C)cc1C(=O)NCCC(=N)N [TALLIMUSTINE CHLORIDE]	21.7	0.0244	28	–	175	3.125
